Measurements: the NIST ThermoML archive (doi:10.1021/je034162x)

Details: 101.33 kPa, Liquid, Hot wire method

C1CCCCC1 [cyclohexane]
Details | thermal conductivity [W/m/K] | thermal diffusivity [m2/s]
280.83 K | 0.1232 | –
281 K | 0.1231 | –
281.15 K | 0.123 | –
281.38 K | – | 8.75e-08
281.78 K | – | 8.73e-08
282.12 K | – | 8.75e-08
295.53 K | 0.119 | –
295.7 K | 0.1189 | –
295.83 K | 0.1187 | –
296.05 K | – | 8.25e-08
296.45 K | – | 8.28e-08
296.76 K | – | 8.24e-08
300.84 K | 0.1175 | –
301 K | 0.1173 | –
301.14 K | 0.1172 | –
301.35 K | – | 8.09e-08
301.73 K | – | 8.06e-08
302.06 K | – | 8.09e-08
318.66 K | 0.1124 | –
318.82 K | 0.1123 | –
318.95 K | 0.1121 | –
319.16 K | – | 7.6e-08
319.54 K | – | 7.59e-08
319.84 K | – | 7.56e-08

C1=CCCCC1 [cyclohexene]
Details | thermal conductivity [W/m/K] | thermal diffusivity [m2/s]
257.22 K | 0.1406 | –
257.42 K | 0.1404 | –
257.57 K | 0.1404 | –
257.97 K | – | 1.01e-07
258.49 K | – | 1.01e-07
258.86 K | – | 1.01e-07
275.37 K | 0.1348 | –
275.58 K | 0.1346 | –
275.73 K | 0.1346 | –
276.12 K | – | 9.55e-08
276.65 K | – | 9.55e-08
277.03 K | – | 9.56e-08
295.57 K | 0.1284 | –
295.77 K | 0.1282 | –
295.92 K | 0.1281 | –
296.28 K | 0.1278 | –
296.29 K | – | 8.83e-08
296.49 K | 0.1277 | –
296.65 K | 0.1276 | –
296.77 K | – | 8.78e-08
297.03 K | – | 8.88e-08
297.15 K | – | 8.79e-08
297.55 K | – | 8.87e-08
297.94 K | – | 8.88e-08
311.67 K | 0.1231 | –
311.89 K | 0.1229 | –
312.04 K | 0.1228 | –
312.42 K | – | 8.46e-08
312.96 K | – | 8.46e-08
313.32 K | – | 8.42e-08
327.85 K | 0.118 | –
328.07 K | 0.1178 | –
328.22 K | 0.1177 | –
328.59 K | – | 7.97e-08
329.13 K | – | 7.97e-08
329.49 K | – | 7.94e-08

C1CCCCCCC1 [cyclooctane]
Details | thermal conductivity [W/m/K] | thermal diffusivity [m2/s]
288.7 K | 0.1205 | –
288.96 K | 0.1203 | –
289.17 K | 0.1202 | –
289.34 K | – | 7.48e-08
289.97 K | – | 7.48e-08
290.48 K | – | 7.48e-08
295.85 K | 0.1191 | –
295.88 K | 0.1191 | –
296.09 K | 0.1189 | –
296.21 K | 0.1188 | –
296.43 K | – | 7.39e-08
296.51 K | – | 7.35e-08
297.02 K | – | 7.36e-08
297.3 K | – | 7.36e-08
311.67 K | 0.1156 | –
311.88 K | 0.1154 | –
312.1 K | 0.1154 | –
312.37 K | – | 7.05e-08
312.87 K | – | 7.03e-08
313.4 K | – | 7.04e-08
328.99 K | 0.1119 | –
329.22 K | 0.1118 | –
329.43 K | 0.1117 | –
329.7 K | – | 6.75e-08
330.22 K | – | 6.75e-08
330.71 K | – | 6.72e-08

C1CCCC1 [cyclopentane]
Details | thermal conductivity [W/m/K] | thermal diffusivity [m2/s]
257.08 K | 0.1428 | –
257.27 K | 0.1426 | –
257.4 K | 0.1425 | –
257.78 K | – | 1.11e-07
258.26 K | – | 1.11e-07
258.6 K | – | 1.11e-07
276.13 K | 0.1349 | –
276.33 K | 0.1348 | –
276.47 K | 0.1348 | –
276.83 K | – | 1.03e-07
277.31 K | – | 1.03e-07
277.68 K | – | 1.03e-07
293.63 K | 0.1281 | –
293.83 K | 0.1279 | –
293.97 K | 0.1278 | –
294.33 K | – | 9.64e-08
294.82 K | – | 9.62e-08
295.17 K | – | 9.61e-08
300.67 K | 0.1254 | –
300.87 K | 0.1253 | –
301.01 K | 0.1251 | –
301.34 K | – | 9.3e-08
301.83 K | – | 9.29e-08
302.17 K | – | 9.28e-08
316.21 K | 0.1195 | –
316.4 K | 0.1193 | –
316.54 K | 0.1192 | –
316.87 K | – | 8.68e-08
317.34 K | – | 8.66e-08
317.67 K | – | 8.65e-08

C1=CCCC1 [cyclopentene]
Details | thermal conductivity [W/m/K] | thermal diffusivity [m2/s]
258.72 K | 0.1491 | –
258.94 K | 0.1489 | –
259.1 K | 0.1488 | –
259.64 K | – | 1.13e-07
260.25 K | – | 1.12e-07
260.69 K | – | 1.12e-07
276.99 K | 0.1409 | –
277.23 K | 0.1407 | –
277.4 K | 0.1406 | –
277.93 K | – | 1.05e-07
278.57 K | – | 1.05e-07
279.02 K | – | 1.05e-07
294.92 K | 0.133 | –
295.16 K | 0.1328 | –
295.33 K | 0.1327 | –
295.88 K | – | 9.78e-08
296.54 K | – | 9.78e-08
296.99 K | – | 9.74e-08
312.58 K | 0.1258 | –
312.84 K | 0.1256 | –
313.02 K | 0.1255 | –
313.55 K | – | 9.09e-08
314.21 K | – | 9.08e-08
314.67 K | – | 9.05e-08

CCc1ccccc1 [ethylbenzene]
Details | thermal conductivity [W/m/K] | thermal diffusivity [m2/s]
258 K | 0.1375 | –
258.29 K | 0.1374 | –
258.5 K | 0.1373 | –
259.49 K | – | 9.45e-08
260.41 K | – | 9.43e-08
261.06 K | – | 9.41e-08
277.34 K | 0.1328 | –
277.65 K | 0.1327 | –
277.88 K | 0.1326 | –
278.88 K | – | 9.04e-08
279.84 K | – | 9.02e-08
280.53 K | – | 9.02e-08
295.86 K | 0.1282 | –
296.19 K | 0.128 | –
296.42 K | 0.128 | –
297.44 K | – | 8.66e-08
298.45 K | – | 8.67e-08
299.16 K | – | 8.66e-08
312.38 K | 0.124 | –
312.72 K | 0.1238 | –
312.96 K | 0.1237 | –
313.99 K | – | 8.29e-08
315.01 K | – | 8.28e-08
315.73 K | – | 8.28e-08
329.05 K | 0.1199 | –
329.41 K | 0.1197 | –
329.66 K | 0.1196 | –
330.69 K | – | 7.97e-08
331.74 K | – | 7.96e-08
332.49 K | – | 7.95e-08
